Inconclusive results are not listed. The source made the active and inactive calls.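 Rule for the calls: active = IC50 no more than tenfold above the highest tested concentration; inconclusive = flat fit with activity between 30% and 70%, or an invalid poor fit; inactive = IC50 beyond tenfold over the top concentration.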
Biological target: Zinc finger protein mex-5 (Caenorhabditis elegans) (UniProt Q9XUB2)
Assay: inhibitors of MEX-5 RNA binding, dose response, biochemical, fluorescence polarization, MBP-MEX-5, FITC-TCR2 RNA (AID 2739)
Conditions: MBP-MEX-5 / FITC-TCR2 RNA fluorescence polarization, 1 h

Chain of Zinc finger protein mex-5 (Caenorhabditis elegans) (Q9XUB2 whole entry, looked up): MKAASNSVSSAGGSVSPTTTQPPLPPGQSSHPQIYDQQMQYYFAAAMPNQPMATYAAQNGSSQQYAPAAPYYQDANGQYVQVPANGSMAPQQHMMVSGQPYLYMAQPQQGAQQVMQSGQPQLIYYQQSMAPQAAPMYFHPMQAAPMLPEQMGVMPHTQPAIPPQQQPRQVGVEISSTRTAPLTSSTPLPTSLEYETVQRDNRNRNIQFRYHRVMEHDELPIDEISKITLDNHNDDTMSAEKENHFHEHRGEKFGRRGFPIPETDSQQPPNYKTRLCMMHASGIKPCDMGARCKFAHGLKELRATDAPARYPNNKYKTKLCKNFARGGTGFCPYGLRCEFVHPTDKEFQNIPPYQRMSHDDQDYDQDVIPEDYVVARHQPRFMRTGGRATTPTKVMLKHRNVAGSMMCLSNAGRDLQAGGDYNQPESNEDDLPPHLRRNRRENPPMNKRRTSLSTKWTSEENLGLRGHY

Structure (SMILES)	IC50
CCc1ccccc1N1C(=O)/C(=C\c2ccc(N3CCN(C)CC3)o2)C(=O)NC1=S	> 135000 nM (inactive)
NC(CO)C(=O)NNCc1ccc(O)c(O)c1O (stereo not drawn)	> 135000 nM (inactive)
Cn1ncc2c(NNC(=O)Cc3ccccc3)ncnc21	1310 nM
CCOC(=O)C1CCN(C(=O)CCC(=O)NNc2nc3ccccc3c3nc(C)nn23)CC1	2390 nM
Cc1ncc(CO)c(/C=N/NC(=O)c2cc(Br)ccc2O)c1O	7890 nM
CCN(CC)c1ccc(/C=C2\C(=O)NC(=S)N(C)C2=O)o1	> 135000 nM (inactive)
CCOC(=O)c1cc(CC)sc1/N=C/c1c(O)[nH]c(=S)[nH]c1=O	> 350000 nM (inactive)
CC1=C(C(=O)OCc2ccccc2)C(c2ccccc2[N+](=O)[O-])NC(=O)N1C (stereo not drawn)	32400 nM
COCCNC(=O)CCC(=O)NNc1nc2ccccc2c2nc(C)nn12	1490 nM
N=c1c(C(=O)NC2CCCCC2)cc2c(=O)n3ccccc3nc2n1Cc1ccc(F)cc1	> 135000 nM (inactive)
O=c1c(O)cccc2cc(O)c(O)c(O)c12	2030 nM
COCCCNC(=O)CCC(=O)NNc1nc2ccccc2c2nc(C)nn12	1640 nM
COc1ccc(-c2cn[nH]c2-c2ccc(OCC(=O)NN)cc2O)cc1OC	1580 nM
Cc1nc(N=Nc2ccc(O)cc2)n[nH]1	16100 nM
CCOCCCNC(=O)CCC(=O)NNc1nc2ccccc2c2nc(C)nn12	2280 nM
CCCCN(C)C(=O)CCC(=O)NNc1nc2ccccc2c2nc(C)nn12	4170 nM
N=c1c(C(=O)NC2CCCCC2)cc2c(=O)n3ccccc3nc2n1Cc1cccnc1	> 350000 nM (inactive)
Cc1cnc(C(=O)NNC(=O)c2ccc(Br)cc2)cn1	1080 nM
Cc1ccc(N2C(=O)NC(=O)/C(=C\c3cc(C)n(-c4ccc(C(=O)O)cc4)c3C)C2=O)cc1	> 135000 nM (inactive)
CCc1ccc(C(=O)NNC(=O)c2ccc(=O)n(C)n2)cc1	9250 nM
Cc1nc2ccccc2c(=O)n1/N=C/c1ccc(O)c(O)c1O	924 nM
CCN(CC)c1ccc(/C=C2\C(=O)NC(=S)N(c3ccc(OC)cc3OC)C2=O)o1	> 135000 nM (inactive)
O=C(NNC(=O)c1ccccc1[N+](=O)[O-])c1csc(N2CCOCC2)n1	1310 nM
